Test results as given in patent US20230065740A1, “CYCLIN-DEPENDENT KINASE INHIBITORS” (SPV THERAPEUTICS INC., priority 2018, published 2023).
pIC50: −log10 of the molar value. “And” between values parts separate entries of the source, which are not always exact repeats. Equal entries are not always repeated. Where two headings read alike, the source gives them in different places.

Experiments:
[1] = target: T1, CDK2-CYCLINA (Homo sapiens, UniProt P24941); assay: Microfluidic LabChip kinase inhibition assay, CDK2-CyclinA; type: biochemical; conditions: 50 μM ATP
T1 construct: purchased Millipore

[2] = target: T2, CDK9-CYCLINT1 (Homo sapiens, UniProt P50750); assay: Microfluidic LabChip kinase inhibition assay, CDK9-CyclinT1; type: biochemical
T2 construct: purchased Carna

[3] = target: CDK1/B (Homo sapiens, UniProt P06493); assay: Additional inhibition assay, CDK1/B; type: biochemical
[4] = target: CDK7 CyclinH (Homo sapiens, UniProt P50613); assay: Additional inhibition assay, CDK7 CyclinH; type: biochemical
[5] = target: CDK4-CYCLIND1 (Homo sapiens, UniProt P11802); assay: Microfluidic LabChip kinase inhibition assay, CDK4-CyclinD1; conditions: 200 μM ATP
Description: Inhibition assays were performed using microfluidic LabChip 300 Drug Discovery System from Caliper Life Sciences. […] The assay has a total volume of 10 μL consisting of 5 μL of enzyme and buffer and 5 μL of substrate and buffer. The test compounds were diluted in 100% dimethylsulfoxide (DMSO) using 3-fold dilution steps. […] Compounds were tested in a single well for each dilution and the final concentration of DMSO was maintained at 1%.
The assay buffer contained 100 mM HEPES, pH 7.5, 0.01% Triton X-100, 0.1% bovine serum albumin (BSA), 5 mM MgCl2; 1 mM dithiothreitol (DTT), 10 μM sodium orthovanadate, and 10 μM β-glycerophosphate.
The assay was conducted by adding 5 μL of enzyme, adenosine triphosphate (ATP) and buffer to an assay plate. A 100 nL aliquot of the diluted compounds were added to the plate. The assay was initiated by the addition of 5 μL of phosphoenolpyruvate substrate (PEP) in buffer. […] The reaction was terminated by the addition of EDTA. The plates were analyzed using a Caliper LabChip 3000.

[6] = target: T3, CDK6-CYCLIND3 (Homo sapiens, UniProt Q00534); assay: Microfluidic LabChip kinase inhibition assay, CDK6-CyclinD3; type: biochemical; conditions: 300 μM ATP; for IC50: CDK6 CyclinD3 IC50 (μM)
T3 construct: purchased Carna

[7] = CDK4 CyclinD1 IC50 (μM), Table 3a, second value in parentheses on the next line
[8] = CDK4 CyclinD1 IC50 (μM), Table 3b, second value in parentheses on the next line
[9] = Table 3a, 10 μM ATP, read-out: CDK9 CyclinT1 IC50
[10] = Table 2, 2 nM enzyme, read-out: CDK6 IC50
[11] = CDK4 IC50 (μM), Table 2, 1 nM enzyme
[12] = Table 3a, read-out: CDK6 CyclinD3 IC50
[13] = Table 3b, read-out: CDK6 CyclinD3 IC50

Chain of CDK7 CyclinH (P50613 whole entry): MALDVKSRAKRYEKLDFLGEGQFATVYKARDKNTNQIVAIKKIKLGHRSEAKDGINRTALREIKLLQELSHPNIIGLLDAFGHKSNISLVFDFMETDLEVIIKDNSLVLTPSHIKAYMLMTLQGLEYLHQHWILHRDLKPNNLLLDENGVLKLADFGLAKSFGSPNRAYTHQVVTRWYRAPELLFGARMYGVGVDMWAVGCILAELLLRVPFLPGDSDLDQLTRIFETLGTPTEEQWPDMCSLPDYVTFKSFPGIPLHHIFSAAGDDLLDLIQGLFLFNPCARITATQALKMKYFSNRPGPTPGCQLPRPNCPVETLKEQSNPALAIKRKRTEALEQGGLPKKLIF
Chain of CDK7 CyclinH (P51946 whole entry partner): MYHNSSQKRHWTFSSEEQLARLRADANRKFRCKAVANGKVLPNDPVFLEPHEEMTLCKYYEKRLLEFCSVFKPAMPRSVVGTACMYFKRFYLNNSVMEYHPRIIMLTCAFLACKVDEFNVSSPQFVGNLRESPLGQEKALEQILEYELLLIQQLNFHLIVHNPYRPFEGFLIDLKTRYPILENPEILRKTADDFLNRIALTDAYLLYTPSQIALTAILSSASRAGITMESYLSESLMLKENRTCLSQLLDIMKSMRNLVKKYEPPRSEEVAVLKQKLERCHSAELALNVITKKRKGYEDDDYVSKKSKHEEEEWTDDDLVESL
Chain of CDK7 CyclinH (P51948 whole entry partner): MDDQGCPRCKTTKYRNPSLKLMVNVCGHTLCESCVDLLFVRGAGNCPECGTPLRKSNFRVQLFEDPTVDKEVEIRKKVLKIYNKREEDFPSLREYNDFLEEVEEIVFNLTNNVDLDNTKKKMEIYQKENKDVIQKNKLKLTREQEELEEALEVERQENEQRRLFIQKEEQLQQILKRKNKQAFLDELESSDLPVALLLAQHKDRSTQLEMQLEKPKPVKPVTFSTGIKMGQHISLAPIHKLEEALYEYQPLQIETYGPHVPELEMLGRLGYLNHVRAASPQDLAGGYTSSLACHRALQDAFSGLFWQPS
Chain of CDK4-CYCLIND1 (P11802 whole entry): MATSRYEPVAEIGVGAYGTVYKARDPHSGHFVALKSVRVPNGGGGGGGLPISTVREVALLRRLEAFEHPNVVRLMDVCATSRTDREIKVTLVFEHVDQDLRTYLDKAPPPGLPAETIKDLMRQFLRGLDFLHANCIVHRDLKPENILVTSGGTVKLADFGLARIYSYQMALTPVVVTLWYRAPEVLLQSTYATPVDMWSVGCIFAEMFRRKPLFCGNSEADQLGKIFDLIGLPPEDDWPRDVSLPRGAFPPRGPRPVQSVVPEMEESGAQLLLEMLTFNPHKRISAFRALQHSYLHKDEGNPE
Chain of CDK4-CYCLIND1 (P24385 whole entry partner): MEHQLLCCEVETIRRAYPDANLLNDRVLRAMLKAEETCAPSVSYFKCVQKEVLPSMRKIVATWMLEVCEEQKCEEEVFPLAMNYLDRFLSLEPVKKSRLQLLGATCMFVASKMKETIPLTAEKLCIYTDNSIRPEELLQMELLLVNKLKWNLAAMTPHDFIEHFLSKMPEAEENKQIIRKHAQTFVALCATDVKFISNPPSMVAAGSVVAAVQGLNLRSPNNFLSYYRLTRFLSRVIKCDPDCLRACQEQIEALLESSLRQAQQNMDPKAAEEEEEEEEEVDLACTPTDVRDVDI
Chain of CDK1/B (P06493 whole entry): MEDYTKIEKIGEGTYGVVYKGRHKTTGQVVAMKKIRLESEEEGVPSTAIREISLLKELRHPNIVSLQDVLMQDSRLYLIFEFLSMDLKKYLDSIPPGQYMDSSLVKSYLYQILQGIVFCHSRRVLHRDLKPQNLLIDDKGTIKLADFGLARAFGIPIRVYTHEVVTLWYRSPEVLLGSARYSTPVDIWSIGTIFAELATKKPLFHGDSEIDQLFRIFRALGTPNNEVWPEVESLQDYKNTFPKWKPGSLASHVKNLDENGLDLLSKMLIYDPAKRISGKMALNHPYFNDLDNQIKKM
Chain of CDK1/B (P14635 whole entry partner): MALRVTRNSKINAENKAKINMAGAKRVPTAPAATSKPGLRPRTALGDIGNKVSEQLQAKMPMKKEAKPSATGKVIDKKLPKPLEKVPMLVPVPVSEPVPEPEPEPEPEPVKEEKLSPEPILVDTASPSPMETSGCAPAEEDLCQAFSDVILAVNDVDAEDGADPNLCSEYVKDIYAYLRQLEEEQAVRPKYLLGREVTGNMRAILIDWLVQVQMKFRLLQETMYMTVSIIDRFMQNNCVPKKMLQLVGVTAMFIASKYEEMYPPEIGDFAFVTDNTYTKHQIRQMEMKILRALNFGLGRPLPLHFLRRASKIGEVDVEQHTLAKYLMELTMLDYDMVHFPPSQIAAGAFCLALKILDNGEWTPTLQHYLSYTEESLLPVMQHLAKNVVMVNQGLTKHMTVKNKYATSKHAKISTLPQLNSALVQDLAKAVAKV
T3 sequence (Q00534 whole entry): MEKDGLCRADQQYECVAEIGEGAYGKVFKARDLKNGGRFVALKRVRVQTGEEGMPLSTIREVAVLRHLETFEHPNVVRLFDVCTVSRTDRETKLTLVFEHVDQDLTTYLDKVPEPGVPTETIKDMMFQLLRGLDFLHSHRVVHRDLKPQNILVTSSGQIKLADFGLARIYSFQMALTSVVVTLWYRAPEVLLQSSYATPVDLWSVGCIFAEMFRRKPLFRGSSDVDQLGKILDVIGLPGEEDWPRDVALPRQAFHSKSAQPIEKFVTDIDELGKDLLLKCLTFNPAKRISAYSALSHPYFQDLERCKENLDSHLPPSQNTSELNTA
T3 sequence (P30281 whole entry partner): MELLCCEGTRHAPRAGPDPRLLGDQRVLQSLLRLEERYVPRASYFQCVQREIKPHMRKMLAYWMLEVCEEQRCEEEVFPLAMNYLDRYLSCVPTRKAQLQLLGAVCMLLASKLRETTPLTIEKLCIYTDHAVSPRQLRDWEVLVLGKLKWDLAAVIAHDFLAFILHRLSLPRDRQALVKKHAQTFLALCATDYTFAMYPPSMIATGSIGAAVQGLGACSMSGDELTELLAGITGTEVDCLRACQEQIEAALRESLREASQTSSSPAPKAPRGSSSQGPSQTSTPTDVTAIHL
T2 sequence (P50750 whole entry): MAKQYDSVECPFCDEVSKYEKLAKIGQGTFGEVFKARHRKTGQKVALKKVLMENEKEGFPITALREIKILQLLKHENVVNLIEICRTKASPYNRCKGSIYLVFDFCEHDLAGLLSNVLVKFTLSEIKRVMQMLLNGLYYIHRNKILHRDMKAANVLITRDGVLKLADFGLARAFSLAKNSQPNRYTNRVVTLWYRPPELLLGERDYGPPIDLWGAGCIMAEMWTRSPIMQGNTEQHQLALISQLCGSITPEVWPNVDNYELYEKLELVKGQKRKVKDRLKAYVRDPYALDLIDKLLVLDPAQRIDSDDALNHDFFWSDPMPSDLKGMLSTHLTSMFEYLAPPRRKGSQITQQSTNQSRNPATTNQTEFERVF
T2 sequence (O60563 whole entry partner): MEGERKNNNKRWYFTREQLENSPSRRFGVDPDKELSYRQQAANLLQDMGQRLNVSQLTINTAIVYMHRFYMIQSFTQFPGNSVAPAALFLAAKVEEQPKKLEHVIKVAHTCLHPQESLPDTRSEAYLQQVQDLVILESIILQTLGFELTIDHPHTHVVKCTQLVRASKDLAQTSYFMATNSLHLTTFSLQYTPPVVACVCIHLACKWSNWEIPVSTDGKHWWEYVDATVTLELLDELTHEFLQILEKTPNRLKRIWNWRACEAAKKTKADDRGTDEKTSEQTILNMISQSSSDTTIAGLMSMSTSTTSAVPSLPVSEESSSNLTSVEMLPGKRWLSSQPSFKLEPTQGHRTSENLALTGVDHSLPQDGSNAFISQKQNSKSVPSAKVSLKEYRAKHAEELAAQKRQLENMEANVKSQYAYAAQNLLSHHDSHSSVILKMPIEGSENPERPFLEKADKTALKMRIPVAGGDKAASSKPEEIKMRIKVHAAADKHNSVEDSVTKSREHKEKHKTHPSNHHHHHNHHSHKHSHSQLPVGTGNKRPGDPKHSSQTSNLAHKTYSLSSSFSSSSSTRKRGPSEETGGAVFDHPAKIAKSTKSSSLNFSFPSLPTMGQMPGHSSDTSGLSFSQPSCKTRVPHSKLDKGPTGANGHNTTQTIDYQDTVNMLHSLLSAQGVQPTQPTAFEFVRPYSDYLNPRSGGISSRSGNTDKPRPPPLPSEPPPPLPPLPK

Compound `CN1CCN(c2ccc(Nc3ncc4c(n3)N(C3CCCC3)C3(CC(=O)NC3=O)C4)cc2)CC1` (single isomer, unassigned) [Compound C136, 7′-cyclopentyl-2′-((4-(4-methylpiperazin-1-yl)phenyl)amino)-5′,7′-dihydrospiro[pyrrolidine-3,6′-pyrrolo[2,3-d]pyrimidine]-2,5-dione] has a pIC50 ([1]; Table 3a) of 5.81, a pIC50 ([1]; Table 3b) of 5.81 and a pIC50 [2] of 7.09. The pIC50 ([3]; Table 3a) was 5.90, the pIC50 ([3]; Table 3b) was 5.90 and the pIC50 ([4]; Table 3a) was 5.24. It also gave a pIC50 ([4]; Table 3b) of 5.24, an IC50 [5, 7] of 0.0257 µM and an IC50 [5, 8] of 0.0257 µM.

In the case of `CN1CCN(c2ccc(Nc3ncc4c(n3)N(C3CCCC3)C3(CC(=O)NC3=O)C4)cc2)CC1` (single isomer, unassigned) [Compound C137, 7′-cyclopentyl-2′-((4-(4-methylpiperazin-1-yl)phenyl)amino)-5′,7′-dihydrospiro[pyrrolidine-3,6′-pyrrolo[2,3-d]pyrimidine]-2,5-dione], the pIC50 ([1]; Table 3a) was 5.48, the pIC50 ([1]; Table 3b) was 5.48 and the pIC50 [2, 9] was 6.44. The pIC50 ([3]; Table 3a) was 5.78, the pIC50 ([3]; Table 3b) was 5.78 and the pIC50 ([4]; Table 3a) was 6.23. For the same compound, the pIC50 ([4]; Table 3b) was 6.23, the IC50 [5, 7] was 0.202 µM and the IC50 [5, 8] was 0.202 µM.

Compound `CN1CCN(c2ccc(Nc3ncc4c(n3)N(C3CCCC3)C3(CCNC3=O)C4)cc2F)CC1` (single isomer, unassigned) [Compound C197, 7′-cyclopentyl-2′-((3-fluoro-4-(4-methylpiperazin-1-yl)phenyl)amino)-5′,7′-dihydrospiro[pyrrolidine-3,6′-pyrrolo[2,3-d]pyrimidin]-2-one] has an IC50 ([6]; Table 3a) of 0.258 µM, an IC50 ([6]; Table 3b) of 0.258 µM and a pIC50 ([1]; Table 3a) of 5.68. For the same compound, the pIC50 ([1]; Table 3b) was 5.68, the pIC50 [2] was 7.33 and the pIC50 ([4]; Table 3a) was 4.66. The pIC50 ([4]; Table 3b) was 4.66, the IC50 [5, 7] was 0.0517 µM and 0.028 µM and the IC50 [5, 8] was 0.0517 µM and 0.028 µM.

Compound `CC(C)N1CC=C(c2ccc(Nc3ncc4c(n3)N(C3CCCC3)C3(CC(=O)NC3=O)C4)nc2)CC1` (stereo not drawn) [Compound C94, 7′-cyclopentyl-2′-((1′-isopropyl-1′,2′,3′,6′-tetrahydro-[3,4′-bipyridin]-6-yl)amino)-5′,7′-dihydrospiro[pyrrolidine-3,6′-pyrrolo[2,3-d]pyrimidine]-2,5-dione] has a pIC50 [6, 10] of 7.34 and an IC50 [5, 11] of 0.0462 µM.

Work on `O=C1NCCC12Cc1cnc(Nc3ccc(N4CCC(N5CCOCC5)CC4)cc3)nc1N2C1CCCC1` (stereo not drawn) [Compound C95, 7′-cyclopentyl-2′-((4-(4-morpholinopiperidin-1-yl)phenyl)amino)-5′,7′-dihydrospiro[pyrrolidine-3,6′-pyrrolo[2,3-d]pyrimidin]-2-one] yielded a pIC50 [6, 10] of 6.00 and an IC50 [5, 11] of 0.273 µM.

For `O=C1NCCC12Cc1cnc(Nc3ccc(N4CCC(N5CCOCC5)CC4)nc3)nc1N2C1CCCC1` (stereo not drawn) [Compound C96, 7′-cyclopentyl-2′-((6-(4-morpholinopiperidin-1-yl)pyridin-3-yl)amino)-5′,7′-dihydrospiro[pyrrolidine-3,6′-pyrrolo[2,3-d]pyrimidin]-2-one], the pIC50 [6, 10] was 6.31 and the IC50 [5, 11] was 0.142 µM.

In the case of `O=C1NCCC12Cc1cnc(Nc3ccc(N4CCC(N5CCOCC5)CC4)c(F)c3)nc1N2C1CCCC1` (stereo not drawn) [Compound C97, 7′-cyclopentyl-2′-((3-fluoro-4-(4-morpholinopiperidin-1-yl)phenyl)amino)-5′,7′-dihydrospiro[pyrrolidine-3,6′-pyrrolo[2,3-d]pyrimidin]-2-one], the pIC50 [6, 10] was 6.54 and the IC50 [5, 11] was 0.0747 µM.

`CN1CCN(c2ccc(Nc3ncc4c(n3)N(C3CCCC3)C(=O)C43CCNC3=O)nc2)CC1` (stereo not drawn) [Compound C100, 7′-cyclopentyl-2′-((5-(4-methylpiperazin-1-yl)pyridin-2-yl)amino)spiro[pyrrolidine-3,5′-pyrrolo[2,3-d]pyrimidine]-2,6′(7′H)-dione] showed a pIC50 [6, 10] of 4.48 and an IC50 [5, 11] of 13.7 µM.

Work on `CN1CCN(c2ccc(Nc3ncc4c(n3)N(C3CCCC3)C(=O)C43CCNC3=O)cc2)CC1` (stereo not drawn) [Compound C101, 7′-cyclopentyl-2′-((4-(4-methylpiperazin-1-yl)phenyl)amino)spiro[pyrrolidine-3,5′-pyrrolo[2,3-d]pyrimidine]-2,6′(7′H)-dione] yielded a pIC50 [6, 10] of 4.36 and an IC50 [5, 11] of 21 µM.

With `O=C1NCCC12C(=O)N(C1CCCC1)c1nc(Nc3ccc(N4CCNCC4)c(F)c3)ncc12` (stereo not drawn) [Compound C102, 7′-cyclopentyl-2′-((3-fluoro-4-(piperazin-1-yl)phenyl)amino)spiro[pyrrolidine-3,5′-pyrrolo[2,3-d]pyrimidine]-2,6′(7′H)-dione] the pIC50 [6, 10] was 4.59 and the IC50 [5, 11] was 21.8 µM.

With `CN1CCN(c2ccc(Nc3ncc4c(n3)N(C3CCCC3)C(=O)C43CCNC3=O)cc2F)CC1` (stereo not drawn) [Compound C103, 7′-cyclopentyl-2′-((3-fluoro-4-(4-methylpiperazin-1-yl)phenyl)amino)spiro[pyrrolidine-3,5′-pyrrolo[2,3-d]pyrimidine]-2,6′(7′H)-dione] the pIC50 [6, 10] was 4.29 and the IC50 [5, 11] was 20 µM.

Work on `CN(C)[C@H]1CCN(c2ccc(Nc3ncc4c(n3)N(C3CCCC3)C(=O)C43CCNC3=O)cc2F)C1` (stereo partly drawn) [Compound C105, 7′-cyclopentyl-2′-((4-((S)-3-(dimethylamino)pyrrolidin-1-yl)-3-fluorophenyl)amino)spiro[pyrrolidine-3,5′-pyrrolo[2,3-d]pyrimidine]-2,6′(7′H)-dione] yielded a pIC50 [6, 10] of 4.53 and an IC50 [5, 11] of 11.8 µM.

With `O=C1NCCC12C(=O)N(C1CCCC1)c1nc(Nc3ccc(N4CCC(N5CCOCC5)CC4)c(F)c3)ncc12` (stereo not drawn) [Compound C106, 7′-cyclopentyl-2′-((3-fluoro-4-(4-morpholinopiperidin-1-yl)phenyl)amino)spiro[pyrrolidine-3,5′-pyrrolo[2,3-d]pyrimidine]-2,6′(7′H)-dione] the pIC50 [6, 10] was 4.83 and the IC50 [5, 11] was 7.35 µM.

Work on `O=C1NCCC12Cc1cnc(Nc3ccc(N4CC5(CNC5)C4)c(F)c3)nc1N2C1CCCC1` (stereo not drawn) [Compound C107, 7′-cyclopentyl-2′-((3-fluoro-4-(2,6-diazaspiro[3.3]heptan-2-yl)phenyl)amino)-5′,7′-dihydrospiro[pyrrolidine-3,6′-pyrrolo[2,3-d]pyrimidin]-2-one] yielded a pIC50 [6, 10] of 6.47 and an IC50 [5, 11] of 0.0866 µM.

In the case of `CN(C)CCOc1ccc(Nc2ncc3c(n2)N(C2CCCC2)C2(CCNC2=O)C3)cc1` (stereo not drawn) [Compound C108, 7′-cyclopentyl-2′-((4-(2-(dimethylamino)ethoxy)phenyl)amino)-5′,7′-dihydrospiro[pyrrolidine-3,6′-pyrrolo[2,3-d]pyrimidin]-2-one], the pIC50 ([1]; Table 3a) was < 5.00, the pIC50 ([1]; Table 3b) was < 5.00 and the pIC50 [2, 9] was 7.68. For the same compound, the pIC50 ([3]; Table 3a) was 5.20, the pIC50 ([3]; Table 3b) was 5.20 and the pIC50 ([4]; Table 3a) was < 5.00. For the same compound, the pIC50 ([4]; Table 3b) was < 5.00, the IC50 [5, 7] was 0.124 µM and the IC50 [5, 8] was 0.124 µM.

`CC(C)N1CCN(c2ccc(Nc3ncc4c(n3)N(C3CCCC3)C3(CC(=O)NC3=O)C4)cc2)CC1` (stereo not drawn) [Compound C134, 7′-cyclopentyl-2′-((4-(4-isopropylpiperazin-1-yl)phenyl)amino)-5′,7′-dihydrospiro[pyrrolidine-3,6′-pyrrolo[2,3-d]pyrimidine]-2,5-dione] was tested, and the pIC50 ([1]; Table 3a) was 5.64, the pIC50 ([1]; Table 3b) was 5.64 and the pIC50 ([3]; Table 3a) was 5.75. The pIC50 ([3]; Table 3b) was 5.75, the pIC50 ([4]; Table 3a) was 5.09 and the pIC50 ([4]; Table 3b) was 5.09.

In the case of `CN1CCN(c2ccc(Nc3ncc4c(n3)N(C3CCCC3)C3(CC(=O)NC3=O)C4)cc2F)CC1` (stereo not drawn) [Compound C198, 7′-cyclopentyl-2′-((3-fluoro-4-(4-methylpiperazin-1-yl)phenyl)amino)-5′,7′-dihydrospiro[pyrrolidine-3,6′-pyrrolo[2,3-d]pyrimidine]-2,5-dione], the pIC50 ([1]; Table 3a) was 6.61, the pIC50 ([1]; Table 3b) was 6.61 and the pIC50 ([4]; Table 3a) was 6.77. It also gave a pIC50 ([4]; Table 3b) of 6.77.

`CN1CCN(c2ccc(Nc3ncc4c(n3)N(C3CCCCC3)C3(CCNC3=O)C4)cc2)CC1` (stereo not drawn) [Compound C199, 7′-cyclohexyl-2′-((4-(4-methylpiperazin-1-yl)phenyl)amino)-5′,7′-dihydrospiro[pyrrolidine-3,6′-pyrrolo[2,3-d]pyrimidin]-2-one] was tested, and the pIC50 [6, 12] was 6.99, the pIC50 [6, 13] was 6.99 and the IC50 [5, 7] was 0.0332 µM. It also gave an IC50 [5, 8] of 0.0332 µM.

`CN1CCN(c2ccc(Nc3ncc4c(n3)N(C3CCCCC3)C3(CCNC3=O)C4)cc2F)CC1` (stereo not drawn) [Compound C200, 7′-cyclohexyl-2′-((3-fluoro-4-(4-methylpiperazin-1-yl)phenyl)amino)-5′,7′-dihydrospiro[pyrrolidine-3,6′-pyrrolo[2,3-d]pyrimidin]-2-one] was tested, and the pIC50 [6, 12] was 7.16, the pIC50 [6, 13] was 7.16 and the IC50 [5, 7] was 0.0138 µM and 0.0102 µM. The IC50 [5, 8] was 0.0138 µM and 0.0102 µM.

Compound `CN1CCN(c2ccc(Nc3ncc4c(n3)N(C3CCCCC3)C3(CCNC3=O)C4)cn2)CC1` (stereo not drawn) [Compound C201, 7′-cyclohexyl-2′-((6-(4-methylpiperazin-1-yl)pyridin-3-yl)amino)-5′,7′-dihydrospiro[pyrrolidine-3,6′-pyrrolo[2,3-d]pyrimidin]-2-one] has a pIC50 [6, 12] of 6.94, a pIC50 [6, 13] of 6.94 and an IC50 [5, 7] of 0.0393 µM. For the same compound, the IC50 [5, 8] was 0.0393 µM.

`CN1CCN(c2ccc(Nc3ncc4c(n3)N(C3CCCCC3)C3(CCNC3=O)C4)nc2)CC1` (stereo not drawn) [Compound C202, 7′-cyclohexyl-2′-((5-(4-methylpiperazin-1-yl)pyridin-2-yl)amino)-5′,7′-dihydrospiro[pyrrolidine-3,6′-pyrrolo[2,3-d]pyrimidin]-2-one] was tested, and the pIC50 [6, 12] was 6.15, the pIC50 [6, 13] was 6.15 and the IC50 [5, 7] was 0.368 µM. For the same compound, the IC50 [5, 8] was 0.368 µM.
